Where two headings read alike, the source gives them in different places.
Test system: AGS cells (KRAS^G12D)
Experiment: Detection of cell proliferation in vitro by MTT/MTS method (cell activity experiment)
Type: cell-based
Settings: AGS cells, MTT/MTS, 3 days of drug treatment, read-out: AGS IC50
Procedure, shortened: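 After 3-day compound exposure (final DMSO 0.5%), viability of AGS (KRAS G12D) cells, plated 1000/well one day before dosing, was measured at 490 nm following 4 h MTT or MTS incubation. IC50 was fitted from dose–effect curves relative to DMSO-treated wells.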

| Structure (SMILES) | IC50 (Homo sapiens, AGS, 72 h) | IC50 |
| --- | --- | --- |
| N#Cc1c(OC[C@@]23CCCN2C[C@H](F)C3)nc2c(F)c(-c3cc(O)cc4ccc(F)c(F)c34)ccc2c1N1C[C@H]2CC[C@@H](C1)N2 [Example 179, 4-((1R,5S)-3,8-diazabicyclo[3.2.1]octan-3-yl)-7-(7,8-difluoro-3-hydroxynaphthalen-1-yl)-8-fluoro-2-(((2R,7aS)-2-fluorotetrahydro-1H-pyrrolizin-7a(5H)-yl)methoxy)quinoline-3-carbonitrile] | 550 nM |  |
| Oc1cc(C#Cc2ccc3c(N4C[C@H]5CC[C@@H](C4)N5)nc(OC[C@@]45CCCN4C[C@H](F)C5)nc3c2F)c2ccccc2c1 [Example 363, 4-((4-((1R,5S)-3,8-diazabicyclo[3.2.1]octan-3-yl)-8-fluoro-2-(((2R,7aS)-2-fluorotetrahydro-1H-pyrrolizin-7a(5H)-yl)methoxy)quinazolin-7-yl)ethynyl)naphthalen-2-ol] | 753 nM |  |
| Oc1cc2c(c(-c3ncc4c(N5C[C@H]6CC[C@@H](C5)N6)nc(OC[C@@]56CCCN5C[C@H](F)C6)nc4c3F)c1)C1CC1C2 (stereo partly drawn) [Example 73, 2-(4-((1R,5S)-3,8-diazabicyclo[3.2.1]octan-3-yl)-8-fluoro-2-(((2R,7aS)-2-fluorotetrahydro-1H-pyrrolizin-7a(5H)-yl)methoxy)pyrido[4,3-d]pyrimidin-7-yl)-1,1a, 6,6a-tetrahydrocyclopropa [a]inden-4-ol] | 16.9 nM |  |
| C#Cc1c(F)ccc2cc(O)cc(-c3ccc4c(N5C[C@H]6CC[C@@H](C5)S6(=O)=O)nc(OC[C@@]56CCCN5C[C@H](F)C6)nc4c3F)c12 [Example 160, (1R,5S)-3-(7-(8-ethynyl-7-fluoro-3-hydroxynaphthalen-1-yl)-8-fluoro-2-(((2R,7aS)-2-fluorotetrahydro-1H-pyrrolizin-7a(5H)-yl)methoxy)quinazolin-4-yl)-8-thia-3-azabicyclo[3.2.1]octane 8,8-dioxide] | > 2500 nM |  |
| CCC1COc2cc(O)cc(-c3ncc4c(N5C[C@H]6CC[C@@H](C5)N6)nc(OC[C@@]56CCCN5C[C@H](F)C6)nc4c3F)c21 (stereo partly drawn) [Example 243, 4-(4-((1R,5S)-3,8-diazabicyclo[3.2.1]octan-3-yl)-8-fluoro-2-(((2R,7aS)-2-fluorotetrahydro-1H-pyrrolizin-7a(5H)-yl)methoxy)pyrido[4,3-d]pyrimidin-7-yl)-3-ethyl-2,3-dihydrobenzofuran-6-ol] | 18 nM |  |
| C#Cc1cccc2cc(O)cc(-c3ccc4c(N5C[C@H]6CC[C@@H](C5)N6)nc(OCC5(CN6CCCC6)CC5)nc4c3F)c12 [Example 103, 4-(4-((1R,5S)-3,8-diazabicyclo[3.2.1]octan-3-yl)-8-fluoro-2-((1-(pyrrolidin-1-ylmethyl)cyclopropyl)methoxy)quinazolin-7-yl)-5-ethynylnaphthalen-2-ol] | 29 nM |  |
| C#Cc1c(F)ccc2cc(O)cc(-c3ncc4c(N5CCC(C#N)CC5)nc(OC[C@@]56CCCN5C[C@H](F)C6)nc4c3F)c12 [Example 68, 1-(7-(8-ethynyl-7-fluoro-3-hydroxynaphthalen-1-yl)-8-fluoro-2-(((2R, 7aS)-2-fluorotetrahydro-1H-pyrrolizin-7a(5H)-yl)methoxy)pyrido[4,3-d]pyrimidin-4-yl)piperidine-4-carbonitrile] | 1290 nM |  |
| C#Cc1c(F)ccc2cc(O)cc(-c3ncc4c(N5C[C@H]6CC[C@@H](C5)C6(F)F)nc(OC[C@@]56CCCN5C[C@H](F)C6)nc4c3F)c12 [Example 30, 4-(4-((1R,5S)-8,8-difluoro-3-azabicyclo[3.2.1]octan-3-yl)-8-fluoro-2-(((2R,7aS)-2-fluorotetrahydro-1H-pyrrolizin-7a(5H)-yl)methoxy)pyrido[4,3-d]pyrimidin-7-yl)-5-ethynyl-6-fluoronaphthalen-2-ol] | > 2500 nM |  |
| CCc1c(F)ccc2cc(O)cc(-c3ccc4c(N5C[C@H]6CC[C@@H](C5)S6(=O)=O)nc(OC[C@@]56CCCN5C[C@H](F)C6)nc4c3F)c12 [Example 163, (1R,5S)-3-(7-(8-ethyl-7-fluoro-3-hydroxynaphthalen-1-yl)-8-fluoro-2-(((2R,7aS)-2-fluorotetrahydro-1H-pyrrolizin-7a(5H)-yl)methoxy)quinazolin-4-yl)-8-thia-3-azabicyclo[3.2.1]octane 8,8-dioxide] | > 2500 nM |  |
| CCc1c(F)ccc2cc(O)cc(-c3ccc4c(N5C[C@H]6CC[C@@H](C5)N6)nc(OC[C@@]56CCCN5C[C@H](F)C6)nc4c3F)c12 [Example 92, 4-(4-((1R,5S)-3,8-diazabicyclo[3.2.1]octan-3-yl)-8-fluoro-2-(((2R,7aS)-2-fluorotetrahydro-1H-pyrrolizin-7a(5H)-yl)methoxy)quinazolin-7-yl)-5-ethyl-6-fluoronaphthalen-2-ol] | 2.7 nM |  |
| C#Cc1c(F)ccc2cc(O)cc(-c3ccc4c(N5C[C@H]6CC[C@@H](C5)N6)nc(OCC5(CN6CCCC6)CC5)nc4c3F)c12 [Example 99, 4-(4-((1R,5S)-3,8-diazabicyclo[3.2.1]octan-3-yl)-8-fluoro-2-((1-(pyrrolidin-1-ylmethyl)cyclopropyl)methoxy)quinazolin-7-yl)-5-ethynyl-6-fluoronaphthalen-2-ol] | 8.8 nM |  |
| COC1CCc2cc(O)cc(-c3ncc4c(N5C[C@H]6CC[C@@H](C5)N6)nc(OC[C@@]56CCCN5C[C@H](F)C6)nc4c3F)c21 (stereo partly drawn) [Example 269, 7-(4-((1R,5S)-3,8-diazabicyclo[3.2.1]octan-3-yl)-8-fluoro-2-(((2R,7aS)-2-fluorotetrahydro-1H-pyrrolizin-7a(5H)-yl)methoxy)pyrido[4,3-d]pyrimidin-7-yl)-1-methoxy-2,3-dihydro-1H-inden-5-ol] | 30 nM |  |
| C#Cc1c(F)ccc2cc(O)cc(-c3ccc4c(N5CCC(N)C5)nc(OC[C@@]56CCCN5C[C@H](F)C6)nc4c3F)c12 (stereo partly drawn) [Example 116, 4-(4-(3-aminopyrrolidin-1-yl)-8-fluoro-2-(((2R, 7aS)-2-fluorotetrahydro-1H-pyrrolizin-7a(5H)-yl)methoxy)quinazolin-7-yl)-5-ethynyl-6-fluoronaphthalen-2-ol] |  | > 2500 nM |
| CC1CCCc2cc(O)cc(-c3ccc4c(N5C[C@H]6CC[C@@H](C5)N6)nc(OC[C@@]56CCCN5C[C@H](F)C6)nc4c3F)c21 (single isomer, unassigned) [Example 287] |  | 2140 nM |
| C#Cc1c(F)ccc2cc(O)cc(-c3ccc4c(N5C[C@H]6CC[C@@H](C5)N6)c(C(F)(F)F)c(OC[C@@]56CCCN5C[C@H](F)C6)nc4c3)c12 [Example 183, 4-(4-((1R,5S)-3,8-diazabicyclo[3.2.1]octan-3-yl)-2-(((2R,7aS)-2-fluorotetrahydro-1H-pyrrolizin-7a(5H)-yl)methoxy)-3-(trifluoromethyl)quinolin-7-yl)-5-ethynyl-6-fluoronaphthalen-2-ol] | > 2500 nM |  |
| CCc1c(F)ccc2cc(O)cc(-c3ncc4c(N5C[C@H]6CC[C@@H](C5)S6)nc(OC[C@@]56CCCN5C[C@H](F)C6)nc4c3F)c12 [Example 24, 4-(4-((1R,5S)-8-thia-3-azabicyclo[3.2.1]octan-3-yl)-8-fluoro-2-(((2R, 7aS)-2-fluorotetrahydro-1H-pyrrolizin-7a(5H)-yl)methoxy)pyrido[4,3-d]pyrimidin-7-yl)-5-ethyl-6-fluoronaphthalen-2-ol] | 280 nM |  |
| [O-][S+]1CCCc2cc(O)cc(-c3ncc4c(N5C[C@H]6CC[C@@H](C5)N6)nc(OC[C@@]56CCCN5C[C@H](F)C6)nc4c3F)c21 (stereo partly drawn) [Example 251, 8-(4-((1R,5S)-3,8-diazabicyclo[3.2.1]octan-3-yl)-8-fluoro-2-(((2R,7aS)-2-fluorotetrahydro-1H-pyrrolizin-7a(5H)-yl)methoxy)pyrido[4,3-d]pyrimidin-7-yl)-6-hydroxythiochromane 1-oxide] | > 2500 nM |  |
| CCc1c(F)ccc2cc(O)cc(-c3ncc4c(N5C[C@H]6CC[C@@H](C5)N6)c(C(F)(F)F)c(OC[C@@]56CCCN5C[C@H](F)C6)nc4c3F)c12 [Example 197, 4-(4-((1R,5S)-3,8-diazabicyclo[3.2.1]octan-3-yl)-8-fluoro-2-(((2R,7aS)-2-fluorotetrahydro-1H-pyrrolizin-7a(5H)-yl)methoxy)-3-(trifluoromethyl)-1,6-naphthyridin-7-yl)-5-ethyl-6-fluoronaphthalen-2-ol] | > 2500 nM |  |
| C#Cc1c(F)ccc2cc(O)cc(-c3ccc4c(N5C[C@H]6CC[C@@H](C5)N6)nc(OC[C@@]56CCCN5C[C@H](F)C6)nc4c3)c12 [Example 148, 4-(4-((1R,5S)-3,8-diazabicyclo[3.2.1]octan-3-yl)-2-(((2R, 7aS)-2-fluorotetrahydro-1H-pyrrolizin-7a(5H)-yl)methoxy)quinazolin-7-yl)-5-ethynyl-6-fluoronaphthalen-2-ol] | 318 nM |  |
| C#Cc1c(F)ccc2cc(O)cc(-c3ncc4c(N5C[C@H]6CC[C@@H](C5)N6)c(C#N)c(OC[C@@]56CCCN5C[C@H](F)C6)nc4c3F)c12 [Example 191, 4-((1R,5S)-3,8-diazabicyclo[3.2.1]octan-3-yl)-7-(8-ethynyl-7-fluoro-3-hydroxynaphthalen-1-yl)-8-fluoro-2-(((2R,7aS)-2-fluorotetrahydro-1H-pyrrolizin-7a(5H)-yl)methoxy)-1,6-naphthyridine-3-carbonitrile] | 120 nM |  |
| C#Cc1cc2c(N3C[C@H]4CC[C@@H](C3)N4)nc(OC[C@@]34CCCN3C[C@H](F)C4)nc2c(F)c1-c1cc(O)cc2ccc(F)c(C#C)c12 [Example 373, 4-(4-((1R,5S)-3,8-diazabicyclo[3.2.1]octan-3-yl)-6-ethynyl-8-fluoro-2-(((2R,7aS)-2-fluorotetrahydro-1H-pyrrolizin-7a(5H)-yl)methoxy)quinazolin-7-yl)-5-ethynyl-6-fluoronaphthalen-2-ol] | 30 nM |  |
| C#Cc1c(F)ccc2cc(O)cc(-c3ccc4c(N5CC6CCC(N6)C5=O)nc(OC[C@@]56CCCN5C[C@H](F)C6)nc4c3F)c12 (stereo partly drawn) [Example 214, 3-(7-(8-ethynyl-7-fluoro-3-hydroxynaphthalen-1-yl)-8-fluoro-2-(((2R,7aS)-2-fluorotetrahydro-1H-pyrrolizin-7a(5H)-yl)methoxy)quinazolin-4-yl)-3,8-diazabicyclo[3.2.1]octan-2-one] | > 10000 nM |  |
